Experiments:
COX-2 expression [1] = assay: COX-2 immunoblot (Western blot) in RAW 264.7 cells; format: cell-based, murine; details: RAW 264.7; 75 μM fatty acid
Method: (§1) Cell culture—RAW 264.7 cells (a murine macrophage-like cell line, ATCC TIB-71), 293T cells (a human embryonic kidney cell line, provided by Sam Lee, Beth Israel Hospital. Boston, Mass.), and HT-29 cells (a human colon adenocarcinoma cell line, ATCC HTB-38) were cultured in Dulbecco's modified Eagle's medium (DMEM) containing 10% (v/v) heat-inactivated fetal bovine serum (FBS, Intergen) and 100 units/ml Penicillin and […] Streptomycin (GIBCO-BRL) at 37° C. in a 5% CO2/air environment. Cells (2×10^6) were plated in 60-mm dishes and cultured for an additional 18 hours to allow the number of cells to approximately double. Cells were maintained in serum-poor (0.25% FBS) medium for another 18 hours prior to the treatment with indicated reagents.
Preparation of fatty acids-albumin complexes—All fatty acids were solubilized in ethanol, and then combined with fatty acid-free and low-endotoxin BSA at a molar ratio of 10:1 (fatty acid: albumin) in serum-poor medium (0.25% FBS). Fatty acids-albumin complex solution was freshly prepared prior to each experiment.
Sodium dodecyl sulfate-polyacrylamide gel electrophoresis (SDS-PAGE) and immunoblotting—These procedures were performed as previously described in D. Hwang et al., “Expression of mitogen-inducible cyclooxygenase induced by lipopolysaccharide: mediation through both mitogen-activated protein kinase and NF-kappaB signaling pathways in macrophages,” Biochem. Pharmacol., vol. 54, pp. 87-96 (1997). Briefly, solubilized proteins were subjected to 8% SDS-PAGE for COX-2, iNOS, IL- 1α and GAPDH immunoblot analyses. Following electrophoresis, the gel was transferred to a PVDF membrane and the membrane was blocked to prevent non-specific binding of antibodies in TBS-T [20 mM Tris HCl, 137 mM NaCl, 0.05% (v/v) Tween 20, pH 7.6] containing 5% non-fat dried milk (Carnation). Immunoblotting was performed using respective polyclonal antibodies followed by incubation with anti-rabbit IgG coupled to horseradish peroxidase. The membrane was exposed on an X-ray film (Kodak) using ECL western blot detection reagents (Amersham).
After 11 h, cell lysates were analyzed by COX-2, iNOS, IL-1α, or GAPDH immunoblot using a Western blot analysis.
The cell lysates were analyzed by COX-2 or GAPDH immunoblot.
RAW 264.7 cells were pretested with various concentrations (5, 10, 20, and 50 μM) of docosahexaenoic acid (C22:6n-3) for 3 hours, and then stimulated with LPS (100 ng/ml) for 8 hours and analyzed by COX-2, iNOS, IL-1 a or GAPDH immunoblot.
Cells stably transfected with NFκB(5×) or COX-2 promoter reporter genes were pretreated with various concentrations of each fatty acid for 3 hrs. Cells were then treated with LPS (200 ng/ml). After 8 hrs, cell lysates were prepared and luciferase activities were determined. Data are expressed as a percentage of LPS treatment alone. The results for NFκB and COX-2 expression are given in FIGS. 8A and 8B, respectively. The values are mean±SEM (n=3) of RLA, relative luciferase activity. In FIG. 8C, the cells were pretreated with DHA (20 μM) or C12:0 (75 μM) for 3 hrs and further stimulated with LPS (200 ng/ml for DHA; 1 ng/ml for C12:0). After 8 hr, cell lysates were analyzed by COX-2 and actin immunoblotting.

COX-2 promoter = COX-2 promoter luciferase reporter gene assay, transiently transfected RAW 264.7 cells; format: cell-based, murine
Source text: Plasmids and DNA Constructs—All plasmids and constructs were obtained or made as reported in either S. H. Rhee and D. Hwang, “Murine TOLL-like receptor 4 confers lipopolysaccaride responsiveness as determined by activation of NFκB and expression of the inducible cyclooxygenase,” Journal of Biological Chemistry, vol. 275, pp. 34035-34040 (2000); and J. Y. Lee et al., “Saturated fatty acids, but not unsaturated fatty acids, induce the expression of cyclooxygenase-2 mediated through TOLL-like receptor 4,” Journal of Biological Chemistry, vol. 276, pp. 16683-16689 (2001). Briefly, the luciferase reporter plasmids (pGL2) containing the promoter region of the murine COX-2 gene (−3201/+93 or −1017/+93) were provided by David Dewitt (Michigan State University, East Lansing, Mich.). To prepare the wild-type COX-2 promoter fragment, polymerase chain reaction (PCR) was performed with the primers named Kpn-COX2-For and Hind-COX2-Rev using the murine COX-2 (−1017/+93) luciferase reporter plasmid as a template. To prepare the mutant COX-2 promoter fragment containing mutated NFκB site, Kpn-COX2-Fmut and Hind-COX2-Rev were used as primers. Each PCR fragment was inserted into the KpnI and HindIII sites of pGL2 to generate the wild-type or mutant COX-2 (−410/+86) luciferase reporter constructs, respectively. Sequences for wild-type NFκB site and the primers were used as reported elsewhere. (See Lee et al., 2001). The 2×NFκB-luciferase reporter construct was a gift from Frank Mercurio (Signal Pharmaceuticals, San Diego, Calif.). HSP70-β-galactosidase reporter plasmid was a gift from Robert Modlin (University of California, Los Angeles, Calif.). The expression plasmids for a constitutively active form of TLR4 (DTLR4) and a dominant-negative mutant, DTLR4 (P712H) were prepared as previously described. See S. H. Rhee et al., 2000. The expression plasmid of the wild-type NFκB-inducing kinase (NIK), pRK-NIK(wt) was a gift from Mike Rothe (Tularik, South San Francisco, Calif.). The dominant-negative mutant of inhibitor kB (pCMV4-IkBa(DN)) was provided by Dean Ballard (Vanderbilt University, Nashville, Tenn.). 4×NFκB-luciferase reporter construct was purchased from Clontech (Palo Alto, Calif.) and used for transient transfection. Heat shock protein 70 (HSP70)-β-galactosidase reporter plasmid was from Robert Modlin (University of Calif., Los Angeles, Calif.). The expression plasmids for a wild-type TLR2 and a dominant-negative mutant [TLR2 (P681H)] were from C. B. Wilson (University of Washington, Seattle, Wash.). Constitutively active chimeric CD4-TLR4 was obtained from C. A. Janeway, Jr. (Yale University, New Haven, Conn.). The constitutively active form of MyD88 (MyD88(ΔToll)) and the dominant-negative mutant, MyD88(ΔDD) were kindly provided by Jurg Tschopp (University of Lausanne, Switzerland). The dominant-negative mutant of mouse PPARg [pCMX-PPARg(L466A/L467A)] was a gift from Ira Schulman (Ligand Pharmaceuticals, San Diego, Calif.). All DNA constructs were prepared in large scale using the EndoFree Plasmid Maxi kit (Qiagen, Chatsworth, Calif.) for transfection.
Transient transfection and luciferase assay—These procedures were performed as described in S. H. Rhee et al., “Murine TOLL-like receptor 4 confers lipopolysaccharide responsiveness as determined by activation of NFκB and expression of the inducible cyclooxygenase,” J. Biol. Chem., vol. 275, pp. 34035-34040 (2000); and J. H. Paik et al., “Two opposing effects of non-steroidal anti-inflammatory drugs on the expression of the inducible cyclooxygenase, Mediation through different signaling pathways,” J. Biol. Chem., vol. 275, pp. 28173-28179 (2000). Briefly, RAW 264.7 cells were plated in 6-well plates (5×10^5 cells/well) and transfected with luciferase reporter plasmids and HSP70-β-galactosidase plasmid as an internal control using SuperFect transfect reagent (Quiagen) according to the manufacturer's instructions. […]

COX-2 = target: T1, COX-2 (Ovis aries, UniProt P79208); details: cited from earlier work
T1 sequence (P79208 17-603): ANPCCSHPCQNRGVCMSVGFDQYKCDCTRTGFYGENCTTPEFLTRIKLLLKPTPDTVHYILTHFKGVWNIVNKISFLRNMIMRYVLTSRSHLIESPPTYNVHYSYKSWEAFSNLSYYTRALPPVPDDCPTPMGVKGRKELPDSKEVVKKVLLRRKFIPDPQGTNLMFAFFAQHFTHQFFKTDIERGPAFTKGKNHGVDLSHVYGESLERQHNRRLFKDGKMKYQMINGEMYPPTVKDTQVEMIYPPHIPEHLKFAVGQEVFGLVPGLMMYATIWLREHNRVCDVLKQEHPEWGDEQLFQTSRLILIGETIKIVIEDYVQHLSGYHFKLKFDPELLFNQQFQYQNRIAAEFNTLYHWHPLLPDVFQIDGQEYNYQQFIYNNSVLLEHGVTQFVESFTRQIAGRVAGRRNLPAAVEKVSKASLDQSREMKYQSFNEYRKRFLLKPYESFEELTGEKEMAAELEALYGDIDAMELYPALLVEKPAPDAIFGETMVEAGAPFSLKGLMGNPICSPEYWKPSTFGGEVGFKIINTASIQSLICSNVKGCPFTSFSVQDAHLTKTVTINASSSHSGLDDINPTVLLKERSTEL

NFκB = NFκB luciferase reporter gene assay, transiently transfected RAW 264.7 cells; format: cell-based, murine; details: PamCAG 1 μg/ml, 18 hr
TLR2 = target: T2, TLR2 (Homo sapiens, UniProt O60603); assay: NFκB reporter in TLR2-transfected 293T cells; format: cell-based; details: PamCAG 1 μg/ml, 18 hr
T2 construct: expressed in transfected cells; host or cells: 293T (stated not to express TLR2)
T2 sequence (O60603 21-784, species assumed): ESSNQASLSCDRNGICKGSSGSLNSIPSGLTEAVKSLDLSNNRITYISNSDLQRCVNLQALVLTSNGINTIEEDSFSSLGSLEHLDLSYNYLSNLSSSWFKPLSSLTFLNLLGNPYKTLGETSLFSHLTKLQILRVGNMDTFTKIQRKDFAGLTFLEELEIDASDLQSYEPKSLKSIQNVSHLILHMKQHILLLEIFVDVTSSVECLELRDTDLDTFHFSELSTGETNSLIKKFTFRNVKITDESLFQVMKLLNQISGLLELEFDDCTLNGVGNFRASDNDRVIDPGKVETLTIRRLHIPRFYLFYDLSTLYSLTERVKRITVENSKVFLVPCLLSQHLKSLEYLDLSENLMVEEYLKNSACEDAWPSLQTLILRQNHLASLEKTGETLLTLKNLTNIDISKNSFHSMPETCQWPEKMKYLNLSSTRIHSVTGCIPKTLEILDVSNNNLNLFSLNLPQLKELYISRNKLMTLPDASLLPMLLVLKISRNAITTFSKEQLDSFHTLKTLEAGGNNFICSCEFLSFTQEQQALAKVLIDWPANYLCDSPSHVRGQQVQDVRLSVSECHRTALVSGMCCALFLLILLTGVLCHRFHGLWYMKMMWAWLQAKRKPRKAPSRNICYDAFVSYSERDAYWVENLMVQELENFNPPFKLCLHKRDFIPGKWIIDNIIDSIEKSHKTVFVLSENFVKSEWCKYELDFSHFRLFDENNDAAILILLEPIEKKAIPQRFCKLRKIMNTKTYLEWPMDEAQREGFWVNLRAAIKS
Source text: Plasmids and DNA Constructs—All plasmids and constructs were obtained or made as reported in either S. H. Rhee and D. Hwang, “Murine TOLL-like receptor 4 confers lipopolysaccaride responsiveness as determined by activation of NFκB and expression of the inducible cyclooxygenase,” Journal of Biological Chemistry, vol. 275, pp. 34035-34040 (2000); and J. Y. Lee et al., “Saturated fatty acids, but not unsaturated fatty acids, induce the expression of cyclooxygenase-2 mediated through TOLL-like receptor 4,” Journal of Biological Chemistry, vol. 276, pp. 16683-16689 (2001). Briefly, the luciferase reporter plasmids (pGL2) containing the promoter region of the murine COX-2 gene (−3201/+93 or −1017/+93) were provided by David Dewitt (Michigan State University, East Lansing, Mich.). To prepare the wild-type COX-2 promoter fragment, polymerase chain reaction (PCR) was performed with the primers named Kpn-COX2-For and Hind-COX2-Rev using the murine COX-2 (−1017/+93) luciferase reporter plasmid as a template. To prepare the mutant COX-2 promoter fragment containing mutated NFκB site, Kpn-COX2-Fmut and Hind-COX2-Rev were used as primers. […]
Acylation by saturated fatty acids of bacterial lipopeptides is also required for the activation of TLR2. […] After 18 hr, luciferase activities were determined. […]

COX-2 expression [2] = assay: COX-2 immunoblot in TNFα-treated HT-29 colon cancer cells; format: cell-based, human; details: pretreated 3 hours, TNFα 20 ng/ml 8 hours
Method: as §1
Sodium dodecyl sulfate-polyacrylamide gel electrophoresis (SDS-PAGE) and immunoblotting—These procedures were performed as previously described in D. Hwang et al., “Expression of mitogen-inducible cyclooxygenase induced by lipopolysaccharide: mediation through both mitogen-activated protein kinase and NF-kappaB signaling pathways in macrophages,” Biochem. Pharmacol., vol. 54, pp. 87-96 (1997). […]
Colon cancer cells (HT-29) were pretested with various concentrations of docosahexaenoic acid (C22:6n-3) for 3 hours and then treated with TNFα (20 ng/ml) for 8 hours. Cell lysates were analyzed by COX-2 and GAPDH immunoblot.

MyD88(CA) = assay: NFκB reporter in 293T cells transfected with constitutively active MyD88; format: cell-based, human
Source text: Plasmids and DNA Constructs—All plasmids and constructs were obtained or made as reported in either S. H. Rhee and D. Hwang, “Murine TOLL-like receptor 4 confers lipopolysaccaride responsiveness as determined by activation of NFκB and expression of the inducible cyclooxygenase,” Journal of Biological Chemistry, vol. 275, pp. 34035-34040 (2000); and J. Y. Lee et al., “Saturated fatty acids, but not unsaturated fatty acids, induce the expression of cyclooxygenase-2 mediated through TOLL-like receptor 4,” Journal of Biological Chemistry, vol. 276, pp. 16683-16689 (2001). Briefly, the luciferase reporter plasmids (pGL2) containing the promoter region of the murine COX-2 gene (−3201/+93 or −1017/+93) were provided by David Dewitt (Michigan State University, East Lansing, Mich.). To prepare the wild-type COX-2 promoter fragment, polymerase chain reaction (PCR) was performed with the primers named Kpn-COX2-For and Hind-COX2-Rev using the murine COX-2 (−1017/+93) luciferase reporter plasmid as a template. To prepare the mutant COX-2 promoter fragment containing mutated NFκB site, Kpn-COX2-Fmut and Hind-COX2-Rev were used as primers. Each PCR fragment was inserted into the KpnI and HindIII sites of pGL2 to generate the wild-type or mutant COX-2 (−410/+86) luciferase reporter constructs, respectively. Sequences for wild-type NFκB site and the primers were used as reported elsewhere. […]

Compound | COX-2 expression induced by fatty acid (immunoblot) (COX-2 expression [1]) | effect on COX-2 (inhibition) (COX-2) | other results
CCCCCC/C=C/C=C\CCCCCCCC(=O)O [conjugated linoleic acid, 9(Z), 11(E)-octadecadienoic acid] | unable to induce COX-2 expression | – | –
CCCCCCCCCCCCCCCC(=O)O [palmitic acid] | – | No effect | COX-2 expression induced by saturated fatty acids (relative luciferase activity) (COX-2 promoter; saturated fatty acids C8:0-C18:0, 75 μM each, 24 hr): most potent in inducing COX-2 expression
palmitoyl-Cys((RS)-2,3-di(palmitoyloxy)-propyl)-Ala-Gly-OH [PamCAG] | – | – | expression of COX-2 (endogenous TLR2) (COX-2 promoter; RAW 264.7, PamCAG 1 μg/ml, 18 hr): induced; NFκB activation (endogenous TLR2) (NFκB): induced; TLR2 activation as determined by NFκB activation (TLR2): activated TLR2
CC/C=C\C/C=C\C/C=C\CCCCCCCC(=O)O [α-LA, α-linolenic acid] | – | Inhibitory effects | –
CCCCCCCCCCCCCC(=O)O [myristic acid] | – | No effect | –
CCCCC/C=C\C/C=C\C/C=C\C/C=C\CCCC(=O)O [arachidonic acid] | unable to induce COX-2 expression | – | –
CC/C=C\C/C=C\C/C=C\C/C=C\C/C=C\C/C=C\CCC(=O)O [docosahexaenoic acid] | – | – | effect on TNFα-induced COX-2 expression (immunoblot) (COX-2 expression [2]): failed to inhibit; effect on NFκB activation induced by MyD88 (MyD88(CA)): does not inhibit
CCCCCCCCCCCCCCC(=O)O [pentadecanoic acid] | – | No effect | –
CCCCCCCCCCCCCCCCCC(=O)O [stearic acid] | – | No effect | –
CCCCC/C=C\C/C=C\CCCCCCCC(=O)O [linoleic acid] | unable to induce COX-2 expression | not as effective | –
CCCCCCCC/C=C\CCCCCCCC(=O)O [oleic acid] | unable to induce COX-2 expression | no effect | –

From patent publication US20030032674A1, “Use of unsaturated fatty acids to treat severe inflammatory diseases” (priority 2001, published 2003)
